Data: paper PMC7971076 (Bioorganic & medicinal chemistry letters, 2015)

Experiments:
[1] = test system: cultured primary hippocampal neurons; experiment: Neuroprotection against NMDA-induced excitotoxicity, LDH release; format: cell-based; settings: 100 µM NMDA plus 30 µM glycine 1 h; LDH 20–24 h after; 30 µM 4, 10 µM (+)MK-801
[2] = target: GluN1/GluN2C NMDA receptor (Rattus norvegicus, UniProt P35439+Q00961); format: cell-based; settings: 3 µM compound, absence of Mg2+, n = 5
[3] = test system: diheteromeric NMDA receptors (GluN1 with GluN2A–D); experiment: Two electrode voltage clamp, statements across the diheteromeric NMDA receptors; format: cell-based, rat; settings: for decrease in potency: relative to parent analogues (1/14)
[4] = target: GluN1/GluN2D NMDA receptor (Rattus norvegicus, UniProt P35439+Q62645); format: cell-based; settings: compared to screening hit 1
GluN1/GluN2D NMDA receptor, sequence (Q62645 28-1323, other chains not shown): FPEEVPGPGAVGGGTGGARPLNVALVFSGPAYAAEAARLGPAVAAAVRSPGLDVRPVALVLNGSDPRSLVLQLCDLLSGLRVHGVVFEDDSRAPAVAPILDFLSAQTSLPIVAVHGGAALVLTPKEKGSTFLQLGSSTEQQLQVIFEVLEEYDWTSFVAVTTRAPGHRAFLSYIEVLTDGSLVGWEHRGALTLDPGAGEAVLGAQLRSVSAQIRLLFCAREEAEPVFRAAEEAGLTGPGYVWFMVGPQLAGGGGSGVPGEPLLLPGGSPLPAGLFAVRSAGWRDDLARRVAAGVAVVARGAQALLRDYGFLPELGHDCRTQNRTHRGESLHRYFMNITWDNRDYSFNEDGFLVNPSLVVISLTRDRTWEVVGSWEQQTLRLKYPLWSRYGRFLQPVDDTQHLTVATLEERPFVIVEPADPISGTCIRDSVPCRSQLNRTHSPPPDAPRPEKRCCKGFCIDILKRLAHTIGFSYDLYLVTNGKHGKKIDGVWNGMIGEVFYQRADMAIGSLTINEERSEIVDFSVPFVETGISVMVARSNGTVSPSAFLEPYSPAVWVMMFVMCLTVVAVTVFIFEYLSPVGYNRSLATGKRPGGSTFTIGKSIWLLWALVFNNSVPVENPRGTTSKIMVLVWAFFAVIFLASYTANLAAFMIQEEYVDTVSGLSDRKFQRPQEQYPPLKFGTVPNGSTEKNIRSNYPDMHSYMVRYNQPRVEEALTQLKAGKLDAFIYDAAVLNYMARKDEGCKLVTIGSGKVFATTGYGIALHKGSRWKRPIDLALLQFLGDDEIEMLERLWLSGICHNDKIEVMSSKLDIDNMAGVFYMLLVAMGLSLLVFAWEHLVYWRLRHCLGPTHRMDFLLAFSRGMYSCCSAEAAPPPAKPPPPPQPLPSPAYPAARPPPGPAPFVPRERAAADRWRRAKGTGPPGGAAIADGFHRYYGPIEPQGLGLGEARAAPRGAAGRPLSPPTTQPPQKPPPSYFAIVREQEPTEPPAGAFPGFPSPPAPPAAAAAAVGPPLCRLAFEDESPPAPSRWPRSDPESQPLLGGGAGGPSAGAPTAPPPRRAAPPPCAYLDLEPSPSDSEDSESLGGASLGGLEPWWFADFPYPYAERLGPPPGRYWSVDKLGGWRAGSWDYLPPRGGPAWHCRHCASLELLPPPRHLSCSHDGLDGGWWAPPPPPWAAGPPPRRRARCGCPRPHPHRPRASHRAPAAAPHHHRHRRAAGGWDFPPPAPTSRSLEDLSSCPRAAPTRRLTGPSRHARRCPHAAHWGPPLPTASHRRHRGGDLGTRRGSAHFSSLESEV

[5] = Stability of enantiomers separated by chiral semi-preparative HPLC; format: physicochemical; settings: after chiral semi-preparative HPLC

GluN1/GluN2C NMDA receptor, sequence (Q00961 20-1237, other chains not shown): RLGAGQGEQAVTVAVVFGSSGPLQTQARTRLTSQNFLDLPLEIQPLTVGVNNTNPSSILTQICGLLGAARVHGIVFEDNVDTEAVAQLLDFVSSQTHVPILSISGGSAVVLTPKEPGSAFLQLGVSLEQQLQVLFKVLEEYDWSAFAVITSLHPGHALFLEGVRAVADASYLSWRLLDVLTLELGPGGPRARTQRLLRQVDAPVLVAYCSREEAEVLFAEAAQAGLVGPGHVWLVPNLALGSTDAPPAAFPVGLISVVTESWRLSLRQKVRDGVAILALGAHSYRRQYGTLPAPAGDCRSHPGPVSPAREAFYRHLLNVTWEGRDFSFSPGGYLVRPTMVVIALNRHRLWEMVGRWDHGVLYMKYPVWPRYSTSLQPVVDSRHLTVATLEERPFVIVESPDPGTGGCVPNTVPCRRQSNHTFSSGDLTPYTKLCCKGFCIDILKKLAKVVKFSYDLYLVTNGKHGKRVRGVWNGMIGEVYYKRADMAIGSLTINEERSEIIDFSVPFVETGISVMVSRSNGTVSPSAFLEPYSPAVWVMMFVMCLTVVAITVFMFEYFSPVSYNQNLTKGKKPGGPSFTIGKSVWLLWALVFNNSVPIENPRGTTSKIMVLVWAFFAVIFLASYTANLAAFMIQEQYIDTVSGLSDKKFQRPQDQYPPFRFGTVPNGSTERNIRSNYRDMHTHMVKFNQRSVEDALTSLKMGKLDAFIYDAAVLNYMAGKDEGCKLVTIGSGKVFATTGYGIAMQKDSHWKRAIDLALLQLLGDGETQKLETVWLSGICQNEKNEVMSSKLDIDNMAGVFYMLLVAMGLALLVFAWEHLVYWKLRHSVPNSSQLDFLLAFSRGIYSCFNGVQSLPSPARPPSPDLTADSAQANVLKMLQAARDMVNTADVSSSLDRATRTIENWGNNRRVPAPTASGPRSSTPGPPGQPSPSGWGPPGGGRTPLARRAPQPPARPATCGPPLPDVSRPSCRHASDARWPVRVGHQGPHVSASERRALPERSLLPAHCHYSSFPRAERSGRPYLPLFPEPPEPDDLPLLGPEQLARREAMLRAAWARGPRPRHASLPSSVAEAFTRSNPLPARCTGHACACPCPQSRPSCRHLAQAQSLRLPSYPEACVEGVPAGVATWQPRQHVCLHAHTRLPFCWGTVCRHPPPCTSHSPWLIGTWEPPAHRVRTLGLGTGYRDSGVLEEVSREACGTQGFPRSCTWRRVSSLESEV

C[C@]12N[C@H](Cc3ccccc31)c1ccccc12 [(+)MK-801, reference compound]
NMDA/glycine-induced cell death (supernatant LDH) [1]: able to attenuate

CCOC(=O)c1c(NC(=O)CC2SC(N)=NC2=O)sc2c1CCC(C)C2 (centres unmarked) [Compound 4]
degree of inhibition at membrane potentials between ‒60 and +60 mV [2]: the same at all voltages tested
improved activity compared to unsubstituted counterpart 5 [3]: ~ 2 fold
mechanism: inhibition with 10-fold increase in glutamate (1000 µM) or glycine (300 µM) ([3]; 5 µM compound): could not be surmounted
inhibition at saturating concentrations against all GluN2 subunits ([3]; separate experiments, n = 4–6): 73–81%
NMDA/glycine-induced cell death (supernatant LDH) [1]: reduced significantly

CCOC(=O)c1c(NC(=O)CC2SC(=N)NC2=O)sc2c1CCCC2 (centres unmarked) [Compound 5]
increase in potency at GluN2D-containing receptors [4]: 3 fold

CCOC(=O)c1c(NC(=O)CC2SC(=N)NC2=O)sc2c1CCC(F)(F)C2 (centres unmarked) [Compound 11]
racemization of separated enantiomers [5]: prone to rapid racemization

N=C1NC(=O)C(CC(=O)Nc2sc3c(c2C(=O)O)CCCC3)S1 (centres unmarked) [Compound 13]
activity at NMDA receptor subtypes [3]: loss of activity

CCOC(=O)c1cc(C)sc1NC(=O)CC1SC(=N)NC1=O (centres unmarked) [Compound 15]
decrease in potency [3]: > 4 fold

COC(=O)c1ccsc1NC(=O)CC1SC(=N)NC1=O (centres unmarked) [Compound 19]
decrease in potency [3]: over 10 fold

COC(=O)c1c(NC(=O)CC2SC(N)=NC2=O)sc2c1CCCC2 (centres unmarked) [Compound 20]
increase in potency at GluN2D-containing receptors [4]: 2 fold

N#Cc1c(NC(=O)CC2SC(=N)NC2=O)sc2c1CCCC2 (centres unmarked) [Compound 21]
maximal inhibition [3]: 60%

COC(=O)c1c(NC(=O)CC2SC(N)=NC2=O)sc2c1CCC(C)C2 (centres unmarked) [Compound 22]
IC50 values for all NMDA receptor subunits [3]: submicromolar

CCOC(=O)c1c(NC(=O)CC2SC(=O)NC2=O)sc2c1CCC2 (centres unmarked) [Compound 24]
activity at NMDA receptor subtypes [3]: abolished activity

CCOC(=O)c1c(NC(=O)CC2SC(=O)NC2=O)sc2c1CCCC2 (centres unmarked) [Compound 25]
activity at NMDA receptor subtypes [3]: abolished activity

CCOC(=O)c1c(NC(=O)CC2NC(=O)NC2=O)sc2c1CCCC2 (centres unmarked) [Compound 27]
activity at NMDA receptor subtypes [3]: abrogated activity
